Results from patent publication US6624140B1, “Synthetic peptides with antimicrobial and endotoxin neutralizing properties for management of the sepsis syndrome” (Academisch Ziekenhuis Bij de Universiteit van Amsterdam …, priority 1997, dated 2003).
No end group written: not given here.

Assays:
[1] = system: Gram-negative and Gram-positive bacteria; test: Anti-microbial activity of analogues and further peptides (bacterium not specified); assay type: cell-based; conditions: even at the highest concentration tested (20 μg/ml)
Excerpt: A peptide encompassing a selected LPS-binding domain from a well characterized human antiendotoxin protein, known as bactericidal/permeability increasing protein (BPI), from amino acids 85 to 102, denoted as BPI(85-102), was included for a direct comparison of the efficacy of the endotoxin-binding domain of a naturally occurring protein and the synthetic peptides of the invention. The amino acid sequence of the BPI(85-102) peptide is:
The BPI(85-102) reference peptide was synthesized as previously described for peptides of the invention and provided with a C-terminal Cys residue for the purpose of biotinylation as previously described. […] Incubation of various concentrations of the synthetic peptides according to the invention for a limited time period on the survival of both types of bacteria again illustrated their potent anti-microbial activity as opposed to that of the BPI(85-102) peptide (FIG. 1) with the sequence corresponding to that of the potential LPS binding domain of the native BPI protein. This is indicative of a broad specificity of the synthetic peptides, in keeping with the general bactericidal properties of this class of linear amphipathic α-helical peptides. […]

TNF-α production [2] = test: TNF-α in whole blood ex vivo after pre-incubation of LPS with peptide; assay type: cell-based, human; conditions: 1 to 10 μg/ml pre-incubated with 1 ng/ml LPS, even at lowest concentration 1 μg/ml, 4 h at 37° C.
Protocol: FIG. 11. Effect of pre-incubation of E. coli 0111:B4 LPS with synthetic peptides or Polymyxin B on TNF-α levels in whole blood ex vivo. The indicated amounts of synthetic, control peptides or PmB were pre-incubated with E. coli 0111:B4 LPS at 1 ng/ml for […] at 23° C., added to whole blood containing heparin at 2 I.U/ml and the TNF-α concentrations determined after incubation for 4 h at 37° C. Each value is the mean of triplicate experiments. Controls only contained LPS.
In addition, the LPS-neutralizing activity of selected synthetic peptides of the invention were compared in a more complex environment of whole blood ex vivo to determine the effect of physiological concentrations of blood components such as plasma proteins, blood cells etc. on the detoxification efficacy. In pre-incubation experiments, concentrations of synthetic peptides, control peptide or PmB from 1 to 10 μg/ml were pre-incubated with 1 ng/ml E. coli 0111:B4 LPS in pyrogen-free saline for 30 min at 23° C., added to venous blood containing heparin at 2 I.U/ml as anti-coagulant and incubated for 4 h at 37° C. TNF-α concentrations were determined in appropriately diluted cell-free supernatants as described before.

[3] = Turbidity assay of endotoxin complexation; assay type: binding, Escherichia coli; conditions: 2-fold molar excess of synthetic peptide
Protocol: FIG. 2. Endotoxin complexation activity of the synthetic peptides. Peptides at concentrations of 100 to 600 μg/ml were incubated with E. coli D31m4 Re or J5 LPS at 100 μg/ml in a total volume of 100 μl pyrogen-free phosphate buffered saline (PBS) in plastic ELISA microtiter plates for 30 min at 23° C. The turbidity produced by the insoluble peptide-endotoxin complexes was measured at 340 nm. The values represent the mean of three determinations and were corrected for controls containing the same concentrations of endotoxin or peptide.
(§1) Double-immunodiffusion of the peptides of the invention against ‘rough’ R-type E. coli D31m4 Re-LPS (List Biological Laboratories Inc., Calif.) or the structurally more complex ‘smooth’ S-type E. coli 0111:B4 LPS (Sigma Chemical Co., Rockford, Ill.) was performed in 0.8% (w/v) agarose containing 50 mM Tris and 0.1% (w/v) Triton X100, pH 7.5. for 16 h at 20° C. PmB and BPI(85-102) were included as control compounds for comparative purposes. The microprecipitates formed were visualized by Coommassie brilliant blue staining. […] Since the amount of precipitate formed is a function of valency, the peptides of the invention appear to be capable of a high degree of intermolecular binding of LPS molecules via the Lipid A moieties. […] A turbidity assay was employed for a direct comparison of the endotoxin-binding activity or avidity of selected synthetic peptides according to the invention using the ‘rough’ serotypes E. coli Re or Rc (J5) LPS. PmB and BPI(85-102) were included as control compounds for comparative purposes. The degree of precipitation of endotoxin by the synthetic peptides according to the invention was determined by measurement of the optical density of insoluble complexes formed at 340 nm (FIG. 2). In most instances optimal complexation of Re or J5 LPS by the synthetic peptides of the invention was evident at a molar ratio of peptide to endotoxin of 1 to 2. The control BPI(85-102) peptide was required at a 4-fold molar excess for approximately the same degree of complexation. […] There was no significant difference between complexation of Re or the structurally more complex J5-LPS by the synthetic peptides. […] The Lipid A binding affinity of the synthetic peptides were directly compared in a solid-state endotoxin-binding assay. Binding characteristics of biotinylated derivatives of the synthetic peptides BP1, BP2, BP2.1 and the control peptide BPI(85-102) were determined on ELISA microtiter plates coated with E. coli D31m4 Lipid A. Specific binding of the biotinylated peptides to the immobilized Lipid A was determined by development with Streptavidin-HRP and 3, 5, 3′, 5′ tetra-methylbenzidine (TMB) substrate and expressed as the corrected optical density at 450 nm. […] The affinity of the novel synthetic peptide BP2 for endotoxin of increasing complexity as well as the effect of plasma on binding was examined with the use of the ELISA microplate assay.

TNF-α production [4] = test: TNF-α in whole blood ex vivo, peptide added before LPS challenge; assay type: cell-based, human; conditions: 2.5 to 20 μg/ml added 10 min before 1 ng/ml LPS
Protocol: FIG. 12. Effect of pre-challenge addition of synthetic peptides on TNF-a levels induced by E. coli 0111:B4 LPS in whole blood ex vivo. The synthetic peptides BP2, BP2.1 or BP2.2 were added to whole blood containing heparin at 2 I.U/ml at the concentrations indicated and incubated for 10 min at 37° C. TNF-α concentrations were measured after incubation for 4 h at 37° C. subsequent to addition of E. coli 0111:B4 LPS at 1 ng/ml. The values represent the means of triplicate experiments. Controls only contained added LPS.
To determine whether addition of synthetic peptide to whole blood ex vivo prior to endotoxin challenge was effective in endotoxin neutralization assayed in terms of cytokine production, a synthetic peptide of the invention BP2, and the analogues BP2.1 or BP2.2 were added at concentrations of 2.5 to 20 μg/ml to whole blood and incubated for 10 min at 37° C. prior to the addition of 1 ng/ml E. coli 0111:B4 LPS. TNF-α concentrations were determined as previously described. […] The structurally related LPS-binding synthetic peptide analogues BP2.1 and BP2.2 were ineffective in endotoxin neutralization under these conditions.

[5] = Solid-state Lipid A binding ELISA microplate assay; parameters: species or system Escherichia coli; conditions: biotinylated derivatives; immobilized E. coli D31m4 Lipid A; Scatchard plot
Protocol: FIG. 3. Lipid A binding affinity of the synthetic peptides. Plastic ELISA microtiter plates were coated with purified E. coli D31m4 Lipid A at 1 μg/ml. Incubations were for 20 min with the indicated concentrations of synthetic peptides BP1, BP2 or BP2.1 or control peptide BPI(85-102) followed by streptavidin-HRP at a dilution of 1 in 20 000. Washing steps to remove excess peptide or streptavidin were with 50 mM Tris buffer pH 7.4 containing 0.05% (v/v) Tween 20. Development was with TMB substrate for 10 min. The optical density (O.D) at 450 nm was measured with a microplate reader and values were corrected for non-specific binding which was generally between 5 and 10%. The plotted values are the corrected means of triplicate experiments.
as §1

[6] = Double-immunodiffusion against 0111:B4 LPS; assay type: binding, Escherichia coli; conditions: 0.8% agarose, 16 h at 20° C.; data not shown
Protocol: Double-immunodiffusion of the peptides of the invention against ‘rough’ R-type E. coli D31m4 Re-LPS (List Biological Laboratories Inc., Calif.) or the structurally more complex ‘smooth’ S-type E. coli 0111:B4 LPS (Sigma Chemical Co., Rockford, Ill.) was performed in 0.8% (w/v) agarose containing 50 mM Tris and 0.1% (w/v) Triton X100, pH 7.5. for 16 h at 20° C. PmB and BPI(85-102) were included as control compounds for comparative purposes. The microprecipitates formed were visualized by Coommassie brilliant blue staining. […] Since the amount of precipitate formed is a function of valency, the peptides of the invention appear to be capable of a high degree of intermolecular binding of LPS molecules via the Lipid A moieties. […] The degree of precipitation of endotoxin by the synthetic peptides according to the invention was determined by measurement of the optical density of insoluble complexes formed at 340 nm (FIG. 2). […] Binding characteristics of biotinylated derivatives of the synthetic peptides BP1, BP2, BP2.1 and the control peptide BPI(85-102) were determined on ELISA microtiter plates coated with E. coli D31m4 Lipid A. Specific binding of the biotinylated peptides to the immobilized Lipid A was determined by development with Streptavidin-HRP and 3, 5, 3′, 5′ tetra-methylbenzidine (TMB) substrate and expressed as the corrected optical density at 450 nm. […]

[7] = system: IL-6 inducing ability of E. coli 0111:B4 LPS; test: Effect of heparin on neutralization of IL-6 inducing ability of LPS; assay type: cell-based, human; conditions: heparin 0.1 to 100 I.U/ml
Protocol: FIG. 10. Effect of heparin on the efficacy of neutralization of the IL-6 inducing ability of E. coli 0111:B4 LPS by synthetic peptide or Polymyxin B in whole blood diluted 1 in 10. Synthetic peptides at concentrations of 2 μg/ml or PmB at 1 μg/ml was pre-incubated for 30 min at 37° C. with E. coli 0111:B4 LPS at 1 ng/ml in RPMI medium containing heparin in the concentration range of 0.1 to 100 I.U/ml. The residual cytokine inducing ability of the treated endotoxin was determined in diluted whole blood containing heparin at 2 IU/ml after incubation for 16 h at 37° C. Each value is the mean of triplicate determinations corrected for background. Controls contained only LPS.
The endotoxin neutralizing activities of the synthetic peptides of the invention were evaluated by investigating the effect on LPS-stimulated release of the pro-inflammatory cytokines, tumor necrosis factor alpha (TNF-α), interleukin-6 (IL-6) or interleukin-8 (IL-8) in a well characterized in vitro human whole blood bioassay system. In one series of experiments, dilutions of E. coli 0111:B4 LPS from 0.2 to 1 ng/ml were pre-incubated with synthetic peptides at 10 μg/ml concentrations in RPMI medium for 30 min at 20° C. and added to diluted whole blood. Cytokine concentrations in the supernatants were determined after further incubation for 16 h at 37° C. in the presence of 5% CO2 by specific and sensitive ELISA kits (CLB, Amsterdam, The Netherlands). In another series of experiments, the effects of synthetic peptides at concentrations of 2,5, 5 and 10 μg/ml on IL-6 induction by 1 ng/ml 0111:B4 LPS was examined after simultaneous addition of synthetic peptide and LPS to diluted whole blood. […] The control peptide BPI(85-102) was ineffective in reducing cytokine production under these conditions even at a 4-fold higher concentration. This probably reflects the differences in binding affinity for Lipid A of BP1 and BP2 compared with the BPI(85-102) peptide of approximately 5 and 10-fold, respectively. An additional factor which may have influenced binding of the control peptide to endotoxin is the presence of heparin employed as an anti-coagulant at a concentration of […] in the assay system. […] On this basis, it was predicted that the extent of reduction of endotoxin neutralizing efficacy would be a function of the differences in affinity between peptides for endotoxin and heparin. To verify this hypothesis, a series of experiments to determine the effect of increasing heparin concentrations on the efficacy of endotoxin neutralization during pre-incubation of synthetic peptide and E. coli 0111:B4 LPS were performed. FIG. 10 illustrates a dose-dependent suppression of endotoxin neutralizing activity of the synthetic peptides by heparin as exemplified by a reduction of IL-6 inhibition. […]

[8] = comparison value; cited from earlier work

Row | Substance | anti-microbial activity [1] | inhibition of TNF-α production (TNF-α production [2]) | avidity order (degree of insoluble peptide-endotoxin complex formation) [3] | endotoxin neutralization (TNF-α production) (TNF-α production [4]) | apparent binding affinity Ka for Lipid A [5] | precipitation of 0111 LPS [6] | influence of heparin on LPS-neutralizing activity [7] | Ka for Lipid A of known LPS binding molecule [8]
1 | GKLKKKWKAAKKFLKKCS [BP1.1, analogue similar to the formula] | no detectable anti-microbial activity |  |  |  |  |  |  | 
2 | GKWKAFKKAAKKFAKKCS [BP2.2, analogue similar to the formula] |  | no significant reduction | BP2.1>BP2.2>BP2>BP1>PmB >BPI(85-102) | ineffective |  |  |  | 
3 | GKWKLFKKAAKKFLKKCS [BP2.1, analogue similar to the formula] | no detectable anti-microbial activity | no significant reduction | BP2.1>BP2.2>BP2>BP1>PmB >BPI(85-102) | ineffective | 4e+07 M⁻¹ |  |  | 
4 | Polymyxin B [PmB, reference compound] |  | almost complete inhibition | BP2.1>BP2.2>BP2>BP1>PmB >BPI(85-102) |  |  | failed to precipitate | not influenced | 10^7 M^−1
